Experimental data from PubChem BioAssay (NCI).
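Step 1: Grow cells in 96-well plates. Step 2: Expose to compound for 48 hours at 5 concentrations. Step 3: Interpolate endpoints linearly; if unreached, use highest concentration. At the GI50, growth is halved. TGI is the concentration that stops growth completely.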

Key:
Assay in all cases: DTP human tumour cell line panel, 48 h
[1] = tested on: OVCAR-8 ovarian
[2] = tested on: TK-10 renal
[3] = tested on: KM12 colon
[4] = tested on: SK-OV-3 ovarian
[5] = tested on: SF-268 CNS
[6] = tested on: OVCAR-4 ovarian
[7] = tested on: BT-549 breast
[8] = tested on: RPMI-8226 leukemia
[9] = tested on: SW-620 colon
[10] = tested on: K-562 leukemia
[11] = tested on: MCF7 breast
[12] = tested on: RXF 393 renal
[13] = tested on: HL-60(TB) leukemia
[14] = tested on: SK-MEL-2 melanoma
[15] = tested on: HCT-116 colon
[16] = tested on: OVCAR-5 ovarian
[17] = tested on: SK-MEL-28 melanoma
[18] = tested on: SF-539 CNS
[19] = tested on: U251 CNS
[20] = tested on: PC-3 prostate
[21] = tested on: MDA-MB-231 breast
[22] = tested on: SF-295 CNS
[23] = tested on: ACHN renal
[24] = tested on: SK-MEL-5 melanoma
[25] = tested on: MALME-3M melanoma
[26] = tested on: A549 NSCLC
[27] = tested on: SNB-75 CNS

C[C@]12CC[C@@H]3c4ccc(O)cc4CC[C@H]3[C@@H]1CC[C@@H]2NS(=O)(=O)c1ccc(Br)cc1
GI50 [1]: 3.14 µM | TGI [1]: 11.3 µM | GI50 [2]: 3.84 µM | TGI [2]: 12.2 µM | GI50 [3]: 1.97 µM | TGI [3]: 3.89 µM | GI50 [4]: 4.53 µM | TGI [4]: 13.6 µM | GI50 [5]: 3.43 µM | TGI [5]: 13.4 µM | GI50 [6]: 3.01 µM | TGI [6]: 12.4 µM | GI50 [7]: 2.27 µM | TGI [7]: 4.72 µM | GI50 [8]: 2.68 µM | TGI [8]: 7.37 µM | GI50 [9]: 3.35 µM | TGI [9]: 13.1 µM | GI50 [10]: 3.08 µM | TGI [10]: > 100 µM | GI50 [11]: 2.26 µM | TGI [11]: 4.64 µM | GI50 [12]: 2.43 µM | TGI [12]: 4.99 µM | GI50 [13]: 2.77 µM | TGI [13]: 8.5 µM | GI50 [14]: 2.35 µM | TGI [14]: 5.3 µM | GI50 [15]: 2.29 µM | TGI [15]: 5.16 µM | GI50 [16]: 2.31 µM | TGI [16]: 6.03 µM | GI50 [17]: 2.19 µM | TGI [17]: 5.09 µM | GI50 [18]: 2.04 µM | TGI [18]: 3.92 µM | GI50 [19]: 2.89 µM | TGI [19]: 10.6 µM | GI50 [20]: 2.6 µM | TGI [20]: 13.8 µM | GI50 [21]: 2.01 µM | TGI [21]: 4.62 µM | GI50 [22]: 1.75 µM | TGI [22]: 3.29 µM | GI50 [23]: 3.17 µM | TGI [23]: 11.1 µM | GI50 [24]: 1.76 µM | TGI [24]: 3.22 µM | GI50 [25]: 1.93 µM | TGI [25]: 4.36 µM | GI50 [26]: 2.89 µM | TGI [26]: 11.1 µM | GI50 [27]: 2.1 µM | TGI [27]: 9.15 µM
